Data reported in patent publication US20250122173A1, “MODULATORS OF RHO-ASSOCIATED PROTEIN KINASE” (Redx Pharma Limited, priority 2022, published 2025).

Assays:
ROCK1 = ROCK1 (Homo sapiens, UniProt Q13464); experiment: ROCK1 inhibition assay (ROCK1 binding activity, as determined by the assay described for ROCK2); type: biochemical; details: read-out: ROCK 1 (IC50 category)
Method: Assay for ROCK2 inhibition was performed using the protein construct N-terminal 6His-tagged ROCK2 catalytic domain 11-552 (Dundee University, UK). Protein was purified from a baculovirus expression system. Long S6 peptide ([…]) was used as substrate. Kinase reactions were carried out in 15 μl volume in a 96-well plate (black, half area) using 1.25 nM constitutively active ROCK2 kinase, 100 μM long S6 peptide, 20 μM ATP and test compound in DMSO (or DMSO only for controls). The final concentration of DMSO was 1%. Assay buffer was 50 mM HEPES pH 7.5 supplemented with 0.2 mM EDTA, 10 mM magnesium acetate, 0.01% Tween-20, 1 mM DTT and 0.01% BSA. Test compounds were pre-incubated with ROCK2 kinase for 1 hour before addition of ATP and long S6 peptide. After incubation for a further 1 hour, the amount of ADP produced was measured using ADP-Glo Kinase Assay (Promega) as per manufacturer's instructions. The luminescence was measured on a PHERAstar FS (BMG Labtech). The concentration of test compound required to inhibit ADP production by 50% (the IC50) was calculated using a four-parameter logistic function with software by Dotmatics. […] The category “+” refers to compounds with a ROCK2 or ROCK1 IC50 value of >10 μM. The category “++” refers to compounds with a ROCK2 or ROCK1 IC50 value of 10 to 3 μM. The category “+++” refers to compounds with a ROCK1 or ROCK2 IC50 value of 3 to 0.3 μM. The category “++++” refers to compounds with a ROCK1 or ROCK2 IC50 value of <0.3 μM.

ROCK2 = target: T1, ROCK2 (Homo sapiens, UniProt O75116); experiment: ROCK2 inhibition assay (ADP-Glo kinase assay, called ROCK2 binding activity); type: biochemical; details: 20 μM ATP, 1 hour pre-incubation, read-out: ROCK 2 (IC50 category)
T1 construct: N-terminal 6His-tagged ROCK2 catalytic domain 11-552; 6His (N); purchased Dundee University, UK; host or cells: baculovirus expression system
Method: ROCK2 Binding Activity: Assay for ROCK2 inhibition was performed using the protein construct N-terminal 6His-tagged ROCK2 catalytic domain 11-552 (Dundee University, UK). Protein was purified from a baculovirus expression system. Long S6 peptide ([…]) was used as substrate. Kinase reactions were carried out in 15 μl volume in a 96-well plate (black, half area) using 1.25 nM constitutively active ROCK2 kinase, 100 μM long S6 peptide, 20 μM ATP and test compound in DMSO (or DMSO only for controls). The final concentration of DMSO was 1%. Assay buffer was 50 mM HEPES pH 7.5 supplemented with 0.2 mM EDTA, 10 mM magnesium acetate, 0.01% Tween-20, 1 mM DTT and 0.01% BSA. Test compounds were pre-incubated with ROCK2 kinase for 1 hour before addition of ATP and long S6 peptide. After incubation for a further 1 hour, the amount of ADP produced was measured using ADP-Glo Kinase Assay (Promega) as per manufacturer's instructions. The luminescence was measured on a PHERAstar FS (BMG Labtech). The concentration of test compound required to inhibit ADP production by 50% (the IC50) was calculated using a four-parameter logistic function with software by Dotmatics. […] The category “+” refers to compounds with a ROCK2 or ROCK1 IC50 value of >10 μM. The category “++” refers to compounds with a ROCK2 or ROCK1 IC50 value of 10 to 3 μM. The category “+++” refers to compounds with a ROCK1 or ROCK2 IC50 value of 3 to 0.3 μM. The category “++++” refers to compounds with a ROCK1 or ROCK2 IC50 value of <0.3 μM.

T1 sequence (O75116 11-552): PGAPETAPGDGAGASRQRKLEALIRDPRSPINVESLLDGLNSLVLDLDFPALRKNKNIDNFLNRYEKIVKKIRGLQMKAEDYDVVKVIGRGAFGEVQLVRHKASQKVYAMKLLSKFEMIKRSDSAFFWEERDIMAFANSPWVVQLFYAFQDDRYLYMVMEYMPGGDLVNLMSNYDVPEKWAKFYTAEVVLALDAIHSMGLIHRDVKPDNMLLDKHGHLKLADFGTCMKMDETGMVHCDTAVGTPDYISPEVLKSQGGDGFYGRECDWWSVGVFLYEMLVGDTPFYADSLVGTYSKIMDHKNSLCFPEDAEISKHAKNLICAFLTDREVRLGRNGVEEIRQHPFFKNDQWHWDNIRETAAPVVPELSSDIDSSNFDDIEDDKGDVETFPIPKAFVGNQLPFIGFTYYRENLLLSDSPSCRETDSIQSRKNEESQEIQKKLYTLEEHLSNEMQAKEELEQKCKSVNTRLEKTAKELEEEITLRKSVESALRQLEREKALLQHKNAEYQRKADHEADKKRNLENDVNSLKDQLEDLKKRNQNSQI
Chain of ROCK1 (Q13464 whole entry, the tested form may be a part): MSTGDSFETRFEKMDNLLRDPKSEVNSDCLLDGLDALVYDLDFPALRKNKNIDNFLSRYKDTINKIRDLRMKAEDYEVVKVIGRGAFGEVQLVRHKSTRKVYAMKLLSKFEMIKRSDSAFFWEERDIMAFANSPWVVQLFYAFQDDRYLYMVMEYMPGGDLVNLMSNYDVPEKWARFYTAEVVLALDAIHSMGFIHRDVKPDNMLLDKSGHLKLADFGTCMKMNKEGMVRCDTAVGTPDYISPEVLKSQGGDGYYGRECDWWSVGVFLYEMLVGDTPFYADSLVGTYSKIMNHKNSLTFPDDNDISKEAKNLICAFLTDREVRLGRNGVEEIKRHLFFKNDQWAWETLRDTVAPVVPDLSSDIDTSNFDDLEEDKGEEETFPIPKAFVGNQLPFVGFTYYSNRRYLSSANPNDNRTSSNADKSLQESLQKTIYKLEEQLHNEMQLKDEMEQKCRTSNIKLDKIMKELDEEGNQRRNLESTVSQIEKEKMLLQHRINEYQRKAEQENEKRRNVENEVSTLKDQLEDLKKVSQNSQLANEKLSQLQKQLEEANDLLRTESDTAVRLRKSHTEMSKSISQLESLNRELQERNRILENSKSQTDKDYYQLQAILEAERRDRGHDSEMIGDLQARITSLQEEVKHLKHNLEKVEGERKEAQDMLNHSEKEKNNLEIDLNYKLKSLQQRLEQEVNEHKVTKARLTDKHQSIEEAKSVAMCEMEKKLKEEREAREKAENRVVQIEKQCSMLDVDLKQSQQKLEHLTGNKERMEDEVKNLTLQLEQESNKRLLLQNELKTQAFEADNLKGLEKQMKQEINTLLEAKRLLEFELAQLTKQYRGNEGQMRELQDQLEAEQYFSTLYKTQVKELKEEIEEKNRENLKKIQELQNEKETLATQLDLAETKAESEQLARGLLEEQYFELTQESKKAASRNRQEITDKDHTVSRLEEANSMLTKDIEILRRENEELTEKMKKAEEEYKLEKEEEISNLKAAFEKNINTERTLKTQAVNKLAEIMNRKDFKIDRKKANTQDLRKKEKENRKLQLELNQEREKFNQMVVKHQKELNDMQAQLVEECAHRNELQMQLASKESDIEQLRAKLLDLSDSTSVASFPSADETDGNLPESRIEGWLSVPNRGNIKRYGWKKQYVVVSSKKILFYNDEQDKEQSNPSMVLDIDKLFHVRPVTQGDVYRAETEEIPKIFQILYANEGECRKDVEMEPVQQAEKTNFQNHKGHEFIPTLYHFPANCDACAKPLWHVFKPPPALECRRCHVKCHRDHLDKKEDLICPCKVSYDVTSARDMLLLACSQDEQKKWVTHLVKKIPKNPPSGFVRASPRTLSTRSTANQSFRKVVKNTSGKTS

Row | IC50 (ROCK1) [µM] | IC50 (ROCK2) [µM] | Compound
1 | 3 to 10 | < 0.3 | CCn1nc(-c2ccc(-c3ccc(C4CC4)cn3)c(C)c2)nc1Nc1cc2c(cc1C)C(=O)NC2C (stereo not drawn) [Example 103]
2 | > 10 | > 10 | CCn1nc(-c2ccc(C3CCC(C)NC3)cc2)nc1Nc1cc2c(cc1C)C(=O)NC2C (stereo not drawn) [Example 148]
3 | > 10 | < 0.3 | CCn1nc(-c2ccc(-n3cnc(C4CC4)c3)cc2)nc1Nc1ccc2c(c1)C(C)(C)NC2=O [Example 19]
4 | 3 to 10 | < 0.3 | CCn1nc(-c2ccc(-c3ccc(C4CC4)nc3)cc2F)nc1Nc1ccc2c(c1)C(C)NC2=O (stereo not drawn) [Example 74]
5 | > 10 | < 0.3 | CCn1nc(-c2ccc(-c3ccc(C)nc3)cc2F)nc1Nc1ccc2c(c1)C(C)NC2=O (stereo not drawn) [Example 81]
6 | > 10 | 3 to 10 | CCn1nc(-c2ccc(C3CCC(C)NC3)cc2C)nc1Nc1cc2c(cc1C)C(=O)NC2C (stereo not drawn) [Example 155]
7 | > 10 | < 0.3 | Cn1nc(-c2ccc(-c3ccc(C(F)(F)F)nc3)cc2)nc1Nc1ccc2c(c1)CNC2=O [Example 10]
8 | 3 to 10 | < 0.3 | CCn1nc(-c2ccc(-c3cc(C)c(C)cn3)c(C)c2)nc1Nc1cc2c(cc1C)C(=O)NC2C (stereo not drawn) [Example 91]
9 | 3 to 10 | < 0.3 | CCn1nc(-c2cnc(-c3ccc(C4CC4)cc3)c(C)c2)nc1Nc1cc2c(cc1C)C(=O)NC2C (stereo not drawn) [Example 105]
10 | 3 to 10 | < 0.3 | CCn1nc(-c2ccc(-c3ccnc(C)c3)c(F)c2)nc1Nc1ccc2c(c1)CNC2=O [Example 34]
11 | 3 to 10 | < 0.3 | CCn1nc(-c2ccc(-c3cn(C)c(C4CC4)n3)c(F)c2)nc1Nc1ccc2c(c1)C(C)NC2=O (stereo not drawn) [Example 108]
12 | 3 to 10 | < 0.3 | CCn1nc(-c2ccc(-c3ccc(C4CC4)nc3)c(C)c2)nc1Nc1cc2c(cc1C)C(=O)NC2C (stereo not drawn) [Example 48]
13 | 3 to 10 | < 0.3 | CCn1nc(-c2ccc(-n3cc(C4CC4)nc3C)cc2)nc1Nc1ccc2c(c1)CNC2=O [Example 4]
14 | 3 to 10 | < 0.3 | CCn1nc(-c2ccc(-c3ccc(C)nc3)cc2C)nc1Nc1cc2c(cc1C)C(=O)NC2C (stereo not drawn) [Example 150]
15 | > 10 | < 0.3 | CCn1nc(-c2ccc(-c3ccc(C)cn3)c(F)c2)nc1Nc1ccc2c(c1)CNC2=O [Example 79]
16 | 3 to 10 | < 0.3 | CCn1nc(-c2ccc(-c3ccc(C4CC4)nc3)cc2)nc1Nc1cc2c(cc1C)C(=O)NC2C (stereo not drawn) [Example 70]
17 | 3 to 10 | < 0.3 | CCn1nc(-c2ccc(-c3cccnc3)cc2)nc1Nc1ccc2c(c1)CNC2=O [Example 29]
18 | > 10 | 3 to 10 | Cn1nc(-c2cccc(C(=O)NCC(F)(F)F)c2)nc1Nc1ccc2c(c1)CNC2=O [Example 9]
19 | > 10 | < 0.3 | CCn1nc(-c2ccc(-n3cnc(C4CC4)c3)cc2)nc1Nc1ccc2c(c1)C1(CC1)NC2=O [Example 23]
20 | 3 to 10 | < 0.3 | CCn1nc(-c2ccc(-c3ccc(C)nc3)cc2C)nc1Nc1ccc2c(c1)C(C)NC2=O (stereo not drawn) [Example 63]
21 | 0.3 to 3 | < 0.3 | CCn1nc(-c2ccc(-c3ccc(C(C)(C)O)nc3)c(C)c2)nc1Nc1cc2c(cc1C)C(=O)NC2C (stereo not drawn) [Example 154]
22 | < 0.3 | < 0.3 | CCn1nc(-c2ccc(-c3ccnc(C4CC4)c3)c(C)c2)nc1Nc1ccc2c(c1)CNC2=O [Example 32]
23 | > 10 | < 0.3 | CCn1nc(-c2ccc(-c3ccc(C)nc3)nc2)nc1Nc1cc2c(cc1C)C(=O)NC2C (stereo not drawn) [Example 71]
24 | > 10 | < 0.3 | Cn1nc(-c2ccc(-n3cnc(C4CC4)c3)cc2)nc1Nc1ccc2c(c1)C(C)(C)NC2=O [Example 16]

Row | IC50 (ROCK1) [µM] | IC50 (ROCK2) [µM] | Compound
25 | 3 to 10 | < 0.3 | CCn1nc(-c2cc(C)c(-c3ccc(C)nc3)cc2C)nc1Nc1cc2c(cc1C)C(=O)NC2C (stereo not drawn) [Example 77]
26 | > 10 | < 0.3 | CCn1nc(-c2cc(C)c(-c3ccc(C4CC4)nc3)cc2C)nc1Nc1ccc2c(c1)C(C)NC2=O (stereo not drawn) [Example 111]
27 | > 10 | 3 to 10 | Cc1cc(-c2nc(Nc3ccc4c(c3C)CNC4=O)n(C)n2)ccc1-c1cnc(C2CC2)n1C [Example 12]
28 | > 10 | < 0.3 | CCn1nc(-c2ccc(-c3ccc(C)nc3)nc2)nc1Nc1ccc2c(c1)C(C)NC2=O (stereo not drawn) [Example 110]
29 | > 10 | < 0.3 | CCn1nc(-c2ccc(-c3ccc(C)nc3C)c(C)c2)nc1Nc1cc2c(cc1C)C(=O)NC2C (stereo not drawn) [Example 92]
30 | > 10 | < 0.3 | CCn1nc(-c2ccc(-c3ccc(C4CC4)nc3)cc2C)nc1Nc1ccc2c(c1)C(C)NC2=O (stereo not drawn) [Example 50]
31 | > 10 | < 0.3 | CCn1nc(-c2cc(C)c(-c3ccc(C4CC4)nc3)cc2C)nc1Nc1cc2c(cc1C)C(=O)NC2C (stereo not drawn) [Example 88]
32 | > 10 | < 0.3 | CCn1nc(-c2ccc(-c3ccc(C)nc3)c(C(=O)OC)c2)nc1Nc1cc2c(cc1C)C(=O)NC2C (stereo not drawn) [Example 115]
33 | 3 to 10 | < 0.3 | CCn1nc(-c2ccc(-n3cnc(C4CC4)c3)cc2C)nc1Nc1cc2c(cc1C)C(=O)NC2C (stereo not drawn) [Example 126]
34 | > 10 | 3 to 10 | CCn1nc(-c2ccc(C3=CCNC3)cc2)nc1Nc1ccc2c(c1)CNC2=O [Example 68]
35 | 3 to 10 | < 0.3 | CCn1nc(-c2ccc(-c3ccc(C4CC4)nc3)cc2F)nc1Nc1cc2c(cc1C)C(=O)NC2C (stereo not drawn) [Example 73]
36 | > 10 | < 0.3 | CCn1nc(-c2ccc(-c3ccc(C)nc3)c(C(C)=O)c2)nc1Nc1cc2c(cc1C)C(=O)NC2C (stereo not drawn) [Example 125]
37 | > 10 | < 0.3 | CCn1nc(-c2ccc(-n3cc(C4CC4)nc3C)cc2)nc1Nc1ccc2c(c1C)CNC2=O [Example 8]
38 | 0.3 to 3 | < 0.3 | CCn1nc(-c2ccc(-c3ccn(CC(F)(F)F)c3)c(C)c2)nc1Nc1cc2c(cc1C)C(=O)NC2C (stereo not drawn) [Example 139]
39 | 3 to 10 | < 0.3 | CCn1nc(-c2ccc(-c3ccccn3)cc2)nc1Nc1ccc2c(c1)CNC2=O [Example 28]
40 | > 10 | 3 to 10 | CCn1nc(-c2ccc(-c3ccc(C)nc3)cc2)nc1Nc1ccc2c(c1)CN(C)C2=O [Example 35]
41 | > 10 | 0.3 to 3 | CCn1nc(-c2ccc(C3CCN(CC(F)(F)F)CC3)cc2)nc1Nc1cc2c(cc1F)C(=O)NC2C (stereo not drawn) [Example 146]
42 | > 10 | < 0.3 | CCn1nc(-c2cc(C)c(-c3ccc(C4CC4)cn3)cc2F)nc1Nc1ccc2c(c1)C(C)NC2=O (stereo not drawn) [Example 134]
43 | > 10 | < 0.3 | CCn1nc(-c2ccc(-c3ccc(C4CC4)cn3)c(C)c2)nc1Nc1ccc2c(c1)CNC2=O [Example 52]
44 | 3 to 10 | < 0.3 | CCn1nc(-c2ccc(-n3cc(C4CC4)nc3C)cc2)nc1Nc1ccc2c(c1)C(C)NC2=O (stereo not drawn) [Example 22]
45 | > 10 | < 0.3 | CCn1nc(-c2ccc(-c3ccc(C)nc3)cc2C)nc1Nc1cc2c(cc1F)C(=O)NC2C (stereo not drawn) [Example 149]
46 | 0.3 to 3 | < 0.3 | CCn1nc(-c2ccc(-c3ccc(C)nc3)cc2)nc1Nc1cc2c(cc1C)C(=O)NC2 [Example 102]
47 | > 10 | < 0.3 | Cn1nc(-c2ccc(C(=O)NCC(F)(F)F)cc2)nc1Nc1ccc2c(c1)CNC2=O [Example 6]

Row | Compound | IC50 (ROCK1) [µM] | IC50 (ROCK2) [µM]
48 | CCn1nc(-c2ccc(C3=CCN(C)CC3)cc2C)nc1Nc1cc2c(cc1C)C(=O)NC2C (stereo not drawn) [Example 117] | > 10 | 0.3 to 3
